Results on one compound are retold here after patent publication US11260050B2, “Combination of cotinine plus antioxidant for treatment-resistant depression and correction of astrocytes functional deficit induced by depression and other neuropathological” (UNIVERSIDAD SAN SEBASTIAN, priority 2017, dated 2022).

The subject of experiment [1] is conditioned mice. Put plainly: Forced swim test after fear conditioning and extinction (Example 4). It counts as in vivo, Mice C57BL/6. The settings on record: FC mice after extinction; Tukey: cotinine p<0.001, combination p<0.005, sertraline p<0.05. As for the experimental part:
(§1) Three-month-old mice (n=5-6/condition) were weighed and assigned to treatment groups. Mice were treated with vehicle or drugs, starting two h after fear conditioning and daily after behavioral testing until euthanasia. Mice received daily treatments with 1. PBS (phosphate buffer saline, pH 7.4) via intranasal; 2. Cotinine (10 mg/ml) dissolved in PBS via intranasal (IN Cot, 24 μl); 3. Krill oil dissolved in PBS, via intranasal (48 mg/ml, 24 μl); 4. Cotinine (10 mg/ml) plus krill oil dissolved in PBS, via intranasal (48 mg/ml, 24 μl); 5.
(§2) For intranasal delivery, mice were hand-restrained, placed in a supine position, and given two 12 μl drops of cotinine solutions, or PBS, into both nares consecutively. Mice were given an extra 12 μl treatment drop if the subject forcibly ejected or sneezed out the solution. Mice were held supine for 5-10 seconds after delivery to ensure that all fluid was inhaled.

In experiment [2] the test system is mice subjected to restraint stress. Put plainly: Porsolt test after restraint stress, intranasal post-treatment (Example 1, Experiment 1). The settings on record: RS mice post-treated with cotinine via IN; p<0.01. The experiment is classed as in vivo, C57BL/6 mice. As for the experimental part:
(§3) Mice were treated immediately after the 21 days of immobilization stress (6 h/day) until euthanasia. Mice (n=5-8/condition) received daily treatments with 1. PBS (phosphate buffer saline, pH 7.4) via intranasal (2×12 μl/nostril), 2. PBS via gavage (50 μl); 3. Cotinine dissolved in PBS via oral (gavage, (0.5 mg/kg; Cot 0.5); 4. Cotinine dissolved in PBS via intranasal (Cot IN, 10 mg/ml, 2×12 μl/nostril).
(§4) To induce chronic stress, the restraint stress paradigm was used as previously described. Mice are immobilized in 50 ml falcon plastic tubes that were attached to mouse cages. The immobilization proceeded during 6 h from 9:00 AM to 3:00 PM in absence of treatments. Tubes have holes in the opposite side of the tube to allow the animal breathing and urination. Mice were almost completely immobilized for 6 h/day for 21 days after which they were permitted freely to move, eat and drink.
This test is used to measure the antidepressant effects of drugs, and consists in placing each mouse in a transparent cylinder filled with water at room temperature (RT). After a brief period of strong activity, rodents adopt a characteristic immobile posture. The time mice spent immobile is a measure of depressive-like behavior. The immobility time will be recorded during a 15-min and a next day 5-min trial. The time spent by each mouse immobile will be recorded.

In experiment [3] the test system is conditioned mice. Put plainly: Fear retention and extinction tests after fear conditioning (Example 4). The experiment is classed as in vivo, Mice C57BL/6. As for the experimental part:
as §1, §2
Contextual fear conditioning was performed as described. The conditioning chamber used (33 cm×20 cm×22 cm) is surrounded by a sound-attenuating box with a camera connected to freeze frame software (MED Associates Inc.) and equipped to provide a background white noise (72 dB). The conditioning chamber contains in one side a speaker and in the opposite side has a 24V light, and a 36-bar insulated shock grid floor. To perform this test, each mouse was placed in the conditioning chamber for 2 min before the onset of a discrete tone (a sound that will last 30 seconds (sec) at 2,800 Hz and 85 dB). In the last two seconds of this tone, mice received a foot shock of 1 mA, kept in the conditioning chamber for 2 min and returned to their home cages. Between trials, the chamber was sanitized with 70% ethanol and dried. Freezing behavior was defined as the absence of all movement except the one needed for breathing was assessed using the FreezeView Software (MED Associates Inc.).
Fear retention and extinction experiments were performed as described, using the same cohorts of mice and reproduced in two separate experiments. To assess fear retention and mice underwent re-exposure to the conditioning chamber in the absence of an unconditioned stimulus (shock or auditory cues) for 3 minutes (min) in daily extinction trials. Freezing behavior was measured using the ANY-Maze® software (Stoelting CO, USA). The extinction trials were continued until the decrease in freezing behavior reached a stable level.

For experiment [4], the system named is mice subjected to restraint stress. Put plainly: Novel object recognition after restraint stress (Example 1, Experiment 1). It counts as in vivo, C57BL/6 mice. The settings on record: RS mice, 14 days of IN cotinine; p<0.05. As for the experimental part:
as §3, §4
After a habituation step in the OF arena, each mouse was individually placed in the apparatus containing two identical objects located equidistant to each other (familiarization phase) and left to explore the objects for 5 min. Then, mice were returned to their cages and permitted to rest for 30 min. […] The time exploring the two objects was recorded during 5 min. […]

Experiment [5] shares this test system. Put plainly: Light-dark box after restraint stress (Example 1, Experiment 1). The experiment is classed as in vivo, C57BL/6 mice. The settings on record: RS mice treated with cotinine; p=0.035. Here is the method: as §3, §4
Behavioral analysis was performed using the Any-maze® software (Stoelting CO, USA) to track the activity of animals. Mice were tested for depressive behavior, anxiety, locomotor activity and working memory using the Porsolt's test; Light-dark box (LDB) and the elevated plus Maze (EPM), open field (OF), and Novel object recognition (NOR), respectively.

In the next experiment the test system is restrained C57BL/6 mice. The settings on record: oral cotinine administered before and continuously to restrained C57BL/6 mice; cited from earlier work.
Experiment [6] has as its system mice subjected to fear conditioning. Put plainly: Contextual fear retention and extinction (Example 1, Experiment 3). It counts as in vivo, C57BL/6 mice. The source says:
Between trials, the chamber was sanitized with 70% ethanol and dried.

Take `CN1C(=O)CC[C@H]1c1cccnc1` [Cotinine, (5S)-1-methyl-5-(3-pyridyl) pyrrolidin-2-one]: the “depressive-like behavior (immobility) in the forced swim test” value with conditioned mice [1] is “significantly decreased depressive-like behavior”. Besides, in experiment [2], the “depressive-like behavior (freezing/immobility) in the Porsolt test” value is recorded as “significant decrease in depressive-like behavior”. Also, the “freezing behavior during daily extinction trials (speed of fear extinction)” value in the experiment with conditioned mice [3] (5 days of extinction, daily treatment) is listed as “faster extinction of fear”. Further, in the experiment on conditioned mice [3] (same time as mice treated with PBS), the “day on which maximal decrease in freezing was reached” value worked out at 4 days. The “fear reaction (freezing) in the retention test” value with conditioned mice [3] (treatment started 2 h after FC, IN cotinine 10 mg/ml, IN KO 48 mg/ml, oral sertraline 3 mg/kg) is given as “significant decrease in the fear reaction in the retention test”. Besides, the “number of entries into the new object area (NOR)” value in experiment [4] is “increased the number of entries into the new object area to control values”. The “number of entries to the light zone (light-dark box)” value in experiment [5] was “almost completely restored the number of entries to the light zone”. Further, in the experiment with restrained C57BL/6 mice, the “depressive-like behavior induced by stress” value was “substantively decreased depressive-like behavior induced by stress”. Moreover, in experiment [6] (IN treatment started 2 h after FC, test 24 h after FC), the “freezing in the contextual retention test (consolidation of fear memory)” value is reported as “levels of freezing similar to control mice”. Moreover, the “freezing behavior during contextual fear extinction trials” value in experiment [6] (daily IN treatment, daily 3 min re-exposure) was “significant enhancement of memory extinction on day 2 and 3”. The “day of maximal decrease in freezing during extinction” value in experiment [6] (daily IN treatment, control mice day 5) stood at 3 days.
